Measurements as given in patent publication US8541365B2, “Dendrimeric compounds comprising amino acids, hyperbranched core compound, process for preparation of dendrimeric compounds comprising amino acids and hyperbranched core compound, and use thereof” (Instytut Chemii Organicznej, Polska Akademia Nauk, priority 2008, dated 2013).
Read-outs that look alike come from different tables or passages of the source.

Key:
[1] = test system: S. aureus ATCC 25923; assay type: cell-based, Staphylococus aureus subsp. aureus; conditions: S. aureus ATCC 25923; microdilution in CAMHB, 18 h at 35° C.
Experimental: (§1) Titration plates with a, b, d strains were incubated for 18 h at 35° C. under aerobic conditions, and the c strain was incubated for 18 h at 33° C. under aerobic conditions.
b) Staphylococus aureus subsp. aureus ATCC 25923,

[2] = test system: C. albicans ATCC 10231
Experimental: Values of a minimal inhibitory concentration—MIC of compounds according to the invention for bacterial strains were assayed by a standard method of microdilutions on a liquid substrate (Clinical and Laboratory Standards Institute 2007. Methods for Dilution Antimicrobial Susceptibility Tests for Bacteria That Grow Aerobically. Approved Standard—Seventh Edition. M7-A7. Clinical and Laboratory Standards Institute, Wayne, Pa., USA).
A series of double dilutions of the tested compounds in DMSO was prepared. They were then diluted 95× in CAMHB (Cation Adjusted Mueller—Hinton Broth).
Bacteria were cultured for 24 h at 35° C. under aerobic conditions on a solid TSA (Triptic Soy Agar) medium. A volume of a proper test was 0.1 ml and was composed of: 0.005 ml of a saline suspension of bacteria at a density of 10^7 CFU/ml (final bacteria amount of 5×10^5/ml) and 0.095 ml of a tested compound CAMHB solution. Final concentrations of compounds in the proper test were (μg/ml): 128, 64, 32, 16, 8, 4, 2, 1.
e) C. albicans ATCC 10231.

[3] = test system: human melanoma cells (MEW 155); conditions: MEW 155 cells, 3 days culture
Experimental: Human melanoma cells (MEW 155) received from Institute of Oncology were inoculated on Petri dishes (Ø3 cm, Nunc) to the number of about 75 000, suspended in 3 ml of Eagle medium+10% FBS+antibiotics. Immediately after the inoculation, solutions of tested substances were added to the cells (a substance +20 ml PBS) at 0.5 ml per dish. After culturing for 3 days, numbers of cells (all, dead and alive) at each dish were determined with NucleoCounter apparatus (Chemometec).

[4] = test system: S. aureus ATTC 43300; assay type: cell-based, Staphylococus aureus subsp. aureus; conditions: S. aureus ATTC 43300; microdilution in CAMHB, 18 h at 33° C.
Experimental: as §1
c) Staphylococus aureus subsp. aureus ATCC 43300,

[5] = test system: P. aeruginosa ATTC 27853; assay type: cell-based, Pseudomonas aeruginosa; conditions: P. aeruginosa ATTC 27853; microdilution in CAMHB, 18 h at 35° C.
Experimental: as §1
a) Pseudomonas aeruginosa ATCC 27853,

[6] = test system: E. coli ATTC 25922; assay type: cell-based, Escherichia coli; conditions: E. coli ATTC 25922; microdilution in CAMHB, 18 h at 35° C.
Experimental: as §1
d) Escherichia coli ATCC 25922

Row | SMILES | Minimal inhibitory concentration (MIC) [1] [μM/L] | Minimal inhibitory concentration (MIC) [2] [μM/L] | Live cells (%) ([3]; concentration 10.0 μMol dm^−3) | Minimal inhibitory concentration (MIC) [4] [μM/L] | Minimal inhibitory concentration (MIC) [5] [μM/L] | Minimal inhibitory concentration (MIC) [6] [μM/L] | Live cells (%) ([3]; concentration 33.6 μMol dm^−3) | Live cells (%) ([3]; concentration 25.7 μMol dm^−3)
1 | NC[C@H](NC(=O)OCc1ccccc1)C(=O)NCCNC(=O)CCN(CCCC[C@@H](C(=O)NCCc1c[nH]c2ccccc12)N(CCC(=O)NCCNC(=O)[C@H](CN)NC(=O)OCc1ccccc1)CCC(=O)NCCNC(=O)[C@H](CN)NC(=O)OCc1ccccc1)CCC(=O)NCCNC(=O)[C@H](CN)NC(=O)OCc1ccccc1 [Compound 105] | 38 | 81 | 97.7 | 81 | 81 | 81 | – | –
2 | NCCCC[C@H](NC(=O)OCc1ccccc1Cl)C(=O)NCCNC(=O)CCN(CCC[C@@H](C(=O)NCCc1c[nH]c2ccccc12)N(CCC(=O)NCCNC(=O)[C@H](CCCCN)NC(=O)OCc1ccccc1Cl)CCC(=O)NCCNC(=O)[C@H](CCCCN)NC(=O)OCc1ccccc1Cl)CCC(=O)NCCNC(=O)[C@H](CCCCN)NC(=O)OCc1ccccc1Cl [Compound 96] | 1.87 | – | – | 12.1 | 51 | 12.1 | 11.6 | –
3 | CCCCCCCCCCCCNC(=O)[C@H](CCCN(CCC(=O)NCCNC(=O)[C@H](CCCCN)NC(=O)OCc1ccccc1Cl)CCC(=O)NCCNC(=O)[C@H](CCCCN)NC(=O)OCc1ccccc1Cl)N(CCC(=O)NCCNC(=O)[C@H](CCCCN)NC(=O)OCc1ccccc1Cl)CCC(=O)NCCNC(=O)[C@H](CCCCN)NC(=O)OCc1ccccc1Cl [Compound 109] | – | 69 | – | – | – | – | – | 1.5
